The target in one series is T1, GFP-LRRK2 G2019S (Homo sapiens, UniProt Q5S007, G2019S).
T1 construct: expressed in transfected cells
The series is described as follows: Immunoprecipitation/Western analysis of LRRK2 phosphorylation at Ser910, Ser935, Ser955, Ser973 in HEK293 T-REx GFP-LRRK2 G2019S cells. It is filed as cell-based. The conditions noted are these: 20 µM, 90 min, HEK293 GFP-LRRK2 G2019S, Figure 6.

The next series has as its system LRRK2-GFP. The series can be described thus: Fluorescence microscopy of LRRK2-GFP localization in U-2 OS cells. The format is cell-based, human. Particulars: 3 µM 90 min, Figure 1A. The method, then:
U-2 OS cells were transduced with BacMam LRRK2-GFP as described above. The cells were then plated on chambered coverslips (LabTek II/Nunc, Rochester, NY) at 50% confluency and incubated for 48 hours. The growth medium was replaced with phenol-red free DMEM® (Life Technologies, Carlsbad, CA) before live imaging. Cells were imaged under the same conditions for each mutant using an inverted microscope (Nikon Eclipse TE2000-S) equipped with a PlanApo 60X objective and a charge-coupled device camera (Diagnostic Instruments SPOT RT 2.3.0) using SPOT Advanced software.

Series [1] can be described thus: Cytotoxicity assay (resazurin-based cell viability). Particulars: human. On the technique in general: Alamar Blue is a resazurin reagent that responds to reducing activity.
The next series deals with LRRK2 wild-type (Homo sapiens, UniProt Q5S007). The series can be described thus: TR-FRET cellular assay for LRRK2 Ser935 phosphorylation, SH-SY5Y cells, BacMam LRRK2-GFP wild-type. The arrangement: This high-throughput assay utilizes cells expressing full-length human LRRK2 with a C-terminal GFP tag (LRRK2-GFP); host or cells: SH-SY5Y cells transduced with BacMam. The format is cell-based. The method, then: U-2 OS cells are maintained in growth medium (McCoy’s 5A supplemented with 10% dialyzed FBS (dFBS), 10 mM HEPES, 0.1 mM NEAA, 1 mM Sodium Pyruvate, and 100 U/mL Penicillin/100 µg/mL Streptomycin). HEK293T cells are maintained in DMEM with 10% dFBS, 10 mM HEPES, 0.1 mM NEAA and 100 U/mL Penicillin/100 µg/mL Streptomycin. SH-SY5Y cells are maintained in DMEM/F-12 medium supplemented with 10% dFBS and 100 U/mL Penicillin/100 µg/mL Streptomycin. […] GIBCO® human neural stem cells (hNSCs) were propagated as an adherent culture in StemPro® NSC SFM according to the manufacturer’s recommended protocol (Life Technologies). For BacMam transduction of U-2 OS and HEK293T, cells were harvested, mixed with various amounts of BacMam LRRK2-GFP reagent (v/v) and plated onto 6-well plates. […] Cells were assayed in 384-well format (∼20,000 cells/well) 48 hours post-transduction as above.
Transduced cells in the 384-well assay plate were incubated with indicated inhibitors (5X, 5 µL/well) for 60 to 90 minutes. During this time, 6 X lysis buffer (Life Technologies) was supplemented with 30 nM Tb-labeled anti-LRRK2 pSer935 antibody and both protease and phosphatase inhibitor cocktails (Sigma). The complete 6 X lysis buffer was added to each well (5 µL/well) and the plates were incubated at room temperature in the dark for 2 hours. […] A sigmoidal dose-response equation with varying slope was used to fit the data and generate IC50 values. Z′-factor values were calculated as: Z′-factor = 1 - [(3 × stdevno virus +3 × stdevmaxvirus)/(avgmaxvirus – avgno-virus)]. The IC50 values reported in Table 1 are the averaged numbers from three independent experiments.
(In general: In TR-FRET formats the signal depends on donor and acceptor labels being close together.)

The next series has as its target LRRK2 G2019S (Homo sapiens, UniProt Q5S007, G2019S). The series can be described thus: TR-FRET cellular assay for LRRK2 Ser935 phosphorylation, SH-SY5Y cells, BacMam LRRK2-GFP G2019S (incl. Tocriscreen Mini library screen and follow-up). The arrangement: This high-throughput assay utilizes cells expressing full-length human LRRK2 with a C-terminal GFP tag (LRRK2-GFP); host or cells: SH-SY5Y cells transduced with BacMam. It is filed as cell-based.

Read-outs that look alike come from different tables or passages of the source.

The source of these data is publication PMC3429506, “Screening for Novel LRRK2 Inhibitors Using a High-Throughput TR-FRET Cellular Assay for LRRK2 Ser935 Phosphorylation” (PLoS ONE, 2012).

Sequence of LRRK2 G2019S (Q5S007 whole entry G2019S): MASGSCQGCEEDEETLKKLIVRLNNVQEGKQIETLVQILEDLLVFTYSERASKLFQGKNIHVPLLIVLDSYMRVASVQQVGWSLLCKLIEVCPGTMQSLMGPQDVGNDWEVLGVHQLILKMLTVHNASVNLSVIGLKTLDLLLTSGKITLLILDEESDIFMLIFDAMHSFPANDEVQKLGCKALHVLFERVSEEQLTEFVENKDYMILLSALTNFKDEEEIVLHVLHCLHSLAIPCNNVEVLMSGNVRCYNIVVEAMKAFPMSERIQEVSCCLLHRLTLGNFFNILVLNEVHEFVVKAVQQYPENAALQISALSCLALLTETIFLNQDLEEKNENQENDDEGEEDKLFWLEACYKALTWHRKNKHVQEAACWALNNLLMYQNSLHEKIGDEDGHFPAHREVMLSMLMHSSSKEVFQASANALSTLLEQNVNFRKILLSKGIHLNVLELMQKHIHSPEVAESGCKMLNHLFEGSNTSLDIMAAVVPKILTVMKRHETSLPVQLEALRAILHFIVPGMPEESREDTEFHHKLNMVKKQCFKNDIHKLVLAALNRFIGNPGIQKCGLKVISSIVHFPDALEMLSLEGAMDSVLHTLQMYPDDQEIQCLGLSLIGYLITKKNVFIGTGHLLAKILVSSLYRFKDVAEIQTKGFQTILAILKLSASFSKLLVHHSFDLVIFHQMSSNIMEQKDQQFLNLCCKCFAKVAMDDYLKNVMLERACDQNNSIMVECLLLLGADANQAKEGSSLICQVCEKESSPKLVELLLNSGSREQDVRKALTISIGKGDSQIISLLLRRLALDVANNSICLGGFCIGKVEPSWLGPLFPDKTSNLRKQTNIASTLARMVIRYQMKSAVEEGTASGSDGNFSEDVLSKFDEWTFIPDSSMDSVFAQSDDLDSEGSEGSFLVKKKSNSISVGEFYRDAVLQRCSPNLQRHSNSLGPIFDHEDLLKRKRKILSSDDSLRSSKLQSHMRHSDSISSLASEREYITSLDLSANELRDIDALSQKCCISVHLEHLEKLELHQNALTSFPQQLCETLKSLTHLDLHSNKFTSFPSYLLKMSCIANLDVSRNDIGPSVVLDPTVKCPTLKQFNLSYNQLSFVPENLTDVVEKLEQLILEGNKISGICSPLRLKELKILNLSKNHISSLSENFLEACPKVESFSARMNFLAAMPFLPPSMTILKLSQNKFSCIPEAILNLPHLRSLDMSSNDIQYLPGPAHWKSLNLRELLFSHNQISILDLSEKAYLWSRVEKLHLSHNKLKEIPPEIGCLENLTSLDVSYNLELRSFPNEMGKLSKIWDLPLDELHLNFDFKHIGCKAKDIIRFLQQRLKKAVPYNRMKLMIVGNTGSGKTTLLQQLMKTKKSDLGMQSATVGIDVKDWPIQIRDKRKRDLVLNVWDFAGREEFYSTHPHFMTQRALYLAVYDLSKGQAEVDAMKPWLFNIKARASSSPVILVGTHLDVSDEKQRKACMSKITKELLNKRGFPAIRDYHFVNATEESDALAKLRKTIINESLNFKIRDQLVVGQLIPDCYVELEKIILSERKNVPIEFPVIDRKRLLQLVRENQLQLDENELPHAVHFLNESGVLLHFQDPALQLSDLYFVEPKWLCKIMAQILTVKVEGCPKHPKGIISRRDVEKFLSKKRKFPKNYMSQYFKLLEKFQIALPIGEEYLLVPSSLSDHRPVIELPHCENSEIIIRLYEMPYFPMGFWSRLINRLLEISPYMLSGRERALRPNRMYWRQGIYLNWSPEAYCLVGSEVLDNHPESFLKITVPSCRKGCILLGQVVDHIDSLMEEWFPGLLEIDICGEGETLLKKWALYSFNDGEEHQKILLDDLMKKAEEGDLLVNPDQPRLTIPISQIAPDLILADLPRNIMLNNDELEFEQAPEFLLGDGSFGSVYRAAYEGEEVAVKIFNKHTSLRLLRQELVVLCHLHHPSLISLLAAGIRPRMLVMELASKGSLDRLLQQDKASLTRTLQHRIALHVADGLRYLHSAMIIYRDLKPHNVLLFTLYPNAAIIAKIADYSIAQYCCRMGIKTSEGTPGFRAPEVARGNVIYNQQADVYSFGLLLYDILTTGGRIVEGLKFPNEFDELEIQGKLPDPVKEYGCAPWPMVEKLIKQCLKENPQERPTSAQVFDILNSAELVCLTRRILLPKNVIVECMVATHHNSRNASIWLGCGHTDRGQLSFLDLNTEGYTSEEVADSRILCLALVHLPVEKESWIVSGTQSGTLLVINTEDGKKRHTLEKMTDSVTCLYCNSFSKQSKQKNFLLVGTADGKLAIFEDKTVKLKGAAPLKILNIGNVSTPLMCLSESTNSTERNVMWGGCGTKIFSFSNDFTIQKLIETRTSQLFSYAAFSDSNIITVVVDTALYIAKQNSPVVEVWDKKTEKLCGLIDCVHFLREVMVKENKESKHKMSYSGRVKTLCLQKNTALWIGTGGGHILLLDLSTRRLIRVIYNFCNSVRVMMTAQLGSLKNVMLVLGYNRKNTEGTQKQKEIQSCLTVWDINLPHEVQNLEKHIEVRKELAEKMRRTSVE
Sequence of LRRK2 wild-type (Q5S007 whole entry): as the sequence (Q5S007 whole entry G2019S) above, with S2019G counted along it
T1 sequence (Q5S007 whole entry G2019S): as the sequence (Q5S007 whole entry G2019S) above

Broadly, the inhibition is the share of the control response that was lost under treatment. With `COc1cc(C(=O)N2CCC(N3CCN(C)CC3)CC2)ccc1Nc1ncc2c(n1)N(C)c1ccccc1C(=O)N2C` [LRRK2-IN-1], the “effect on phosphorylation of Ser910, Ser935, Ser955 and Ser973 (IP-Western)” value on GFP-LRRK2 G2019S was “inhibited phosphorylation of Ser910, Ser935, Ser955 and Ser973”. Also, the LRRK2-GFP cellular localization entry in the series on LRRK2-GFP is “relocalization of the wild-type, G2019S and R1441C to more fibrillar-like structures”. In addition, the IC50 in series [1] was more than 20000 nM; on LRRK2 wild-type (25% BacMam wild-type, 90 min, Figure 3C, read-out: IC50, inhibition of TR-FRET signal (Ser935 phosphorylation)), 170 nM; on LRRK2 wild-type (WT, +/- SD, three independent experiments, * = partial inhibition, read-out: IC50, TR-FRET cell-based assay for Ser935 phosphorylation of LRRK2), 200 nM; at LRRK2 G2019S (SH-SY5Y, 25% BacMam G2019S, 90 min, Figure 3C, read-out: IC50, inhibition of TR-FRET signal (Ser935 phosphorylation)), 40 nM; on LRRK2 G2019S (SH-SY5Y, G2019S, +/- SD, three independent experiments, * = partial inhibition, read-out: IC50, TR-FRET cell-based assay for Ser935 phosphorylation of LRRK2), 60 nM; on LRRK2 G2019S (cryopreserved pretransduced SH-SY5Y cells, 25% BacMam G2019S, 90 min, Figure S3, read-out: IC50 using cryopreserved cells), approximately 40 nM. On LRRK2 G2019S (dose-response follow-up, SH-SY5Y G2019S, three independent experiments, read-out: Cellular TR-FRET Assay IC50 +/-SD), the IC50 is 70 nM. Besides, the inhibition at 10 µM at LRRK2 G2019S (SH-SY5Y, LRRK2-IN-1 positive control used at 10 µM, SH-SY5Y G2019S, read-out: %Inhibition Initial screen (positive control)) came out at 100%.
